{"source": "paper PMC10318456", "about": "“Selective inhibitors of the PSEN1–gamma-secretase complex” (The Journal of Biological Chemistry, 2023)", "key": {"[1]": {"target": "T1, PSEN1-APH1B γ-secretase complex (Homo sapiens, UniProt P49768)", "T1 construct": "expressed in transfected cells; host or cells: Psen1/2 double KO/Aph1ABC triple KO MEFs, pMSCV retroviral PSEN-IRES-APH1", "experiment": "Aβ40 secretion by MEF cell line expressing only PSEN1-APH1B γ-secretase (APP-C99-GFP reporter)", "format": "cell-based", "excerpt": "(§1) Mouse embryonic fibroblast (MEF) cells deficient for the Psen and Aph1 genes (Psen1/2^−/−, Aph1ABC^−/−) were reconstituted with human PSEN1 or PSEN2 and with human APH1A or APH1B to generate four independent cell lines, each constitutively expressing exclusively one type of γ-secretase complex (Fig. S1A) ([19]). A human APP-C99-GFP reporter was introduced to enable the measurement of Aβ peptides in the conditioned media of the cells to monitor γ-secretase activity. The assay was established in a 96-well format.\n(§2) Conditional Psen1/2 double KO mice were crossed with conditional Aph1ABC triple KO mice ([29], [52], [58], [59]). At embryonic day 7.5, embryos were dissected and dissociated, and cells were plated in the presence of Dulbecco’s modified Eagle’s medium (DMEM)/F12 50% fetal calf serum (FCS) (Invitrogen). Primary MEFs were immortalized by transduction with LargeT antigen. Psen1/2 double KO/Aph1ABC triple KO MEFs were generated by transduction with a Cre-GFP–expressing adenoviral vector, and GFP-positive MEFs were sorted by fluorescence-activated cell sorting analysis. Psen1/2 Aph1ABC-deficient MEFs were maintained in DMEM/f12 10% FCS. To rescue γ-secretase expression, Psen1/2 double KO/Aph1ABC triple KO MEFs were transduced using Murine Stem Cell Virus retroviral vector system (pMSCV) viral vectors (Clontech) containing the human coding sequences of the different PSEN and APH1 homologs and the zeocin selection marker. An Internal Ribosome Entry Site sequence was cloned between the coding sequences for PSEN and APH1 to ensure co-expression of both proteins. Stable transfected cell lines were selected using 500-μg/ml zeocin (Invitrogen). Four different combinations were made: PSEN1 and APH1AL, PSEN1 and APH1B, PSEN2 and APH1AL, and PSEN2 and APH1B. These cell lines were transduced with pMSCV viral vectors (Clontech) expressing APP-C99-GFP-puromycin. After puromycin selection (5 μg/ml), GFP-positive cells were selected through FACS sorting. For the alanine mutagenesis experiment, pMSCV PSEN1-APH1A viral vectors were generated by using a long PCR-based QuikChange strategy (Stratagene). Stable cell lines without clonal selection were generated for each mutant as described above. All cell lines were regularly tested for the absence of mycoplasma and used for maximum 20 passages in culture.\n(§3) The number of plated cells and incubation times were determined in respect to linearity of Aβ peptide secretion, the dynamic range of Aβ peptide quantification in the medium, and sensitivity to dimethylsulfoxide (DMSO). […] MEF cells were plated in DMEM F12 supplemented with 10% FCS at 10,000 cells per well in 96-well clear bottom plates in the late afternoon and cultured for 16 h at 37 °C, 5% CO2. In the morning of the second day, the medium was replaced with 60 μl of DMEM/F12 supplemented with 2% FCS, and GSI or DMSO (controls) were added. Compounds were tested in serial dilutions with concentrations ranging from […] to 0.1 nM with 3-fold changes. The final concentration of DMSO in all wells was 0.2%. Plates were put in the incubator again at 37 °C, 5% CO2. After 8 h, the culture media were collected, and 30 μl was used to measure Aβ40 peptides. The cell viability was assessed using the CellTiter-Glo Luminescent assay (Promega) that measures ATP production. All screens were performed at one site, and reported IC50 values throughout the manuscript are from this site (Beerse) unless otherwise indicated.\nStandard 96-well SECTOR plates (MSD) were coated with 1.5 μg/ml anti-Aβ JRFcAβ40/28 capture antibody in a final volume of 50 μl of PBS 0.05% Tween 20."}, "[2]": {"test_system": "PSEN1 versus PSEN2 γ-secretase complexes", "experiment": "Comparison of the four MEF cell lines: selectivity between γ-secretase complexes (IC50 ratios)", "format": "cell-based, human", "excerpt": "as §1\nGraphPad Prism 7 software was used to generate inhibition fitting curves (four-parameter logistic equation, nonlinear regression) and to determine IC50 and 95% CI values (Fig. S2). Selectivity values (IC50 ratios of PSEN1 versus PSEN2) above 10 are highlighted in red.\nas §3\nGraphPad Prism 7 software (https://www.graphpad.com) was used to generate inhibition fitting curves (four-parameter logistic equation, nonlinear regression) and to determine IC50 values and 95% CI."}, "[3]": {"target": "T2, PSEN1-APH1A γ-secretase complex (Homo sapiens, UniProt P49768)", "T2 construct": "expressed in transfected cells; host or cells: Psen1/2 double KO/Aph1ABC triple KO MEFs, pMSCV retroviral PSEN-IRES-APH1", "experiment": "Aβ40 secretion by MEF cell line expressing only PSEN1-APH1A γ-secretase (APP-C99-GFP reporter)", "format": "cell-based", "excerpt": "as §1, §2\n(§4) The number of plated cells and incubation times were determined in respect to linearity of Aβ peptide secretion, the dynamic range of Aβ peptide quantification in the medium, and sensitivity to dimethylsulfoxide (DMSO). […] The cell viability was assessed using the CellTiter-Glo Luminescent assay (Promega) that measures ATP production. […]"}, "[4]": {"target": "T3, PSEN2-APH1B γ-secretase complex (Homo sapiens, UniProt P49810)", "T3 construct": "expressed in transfected cells; host or cells: Psen1/2 double KO/Aph1ABC triple KO MEFs, pMSCV retroviral PSEN-IRES-APH1", "experiment": "Aβ40 secretion by MEF cell line expressing only PSEN2-APH1B γ-secretase (APP-C99-GFP reporter)", "format": "cell-based", "conditions": "only the 95% CI is given", "excerpt": "as §1\n(§5) Conditional Psen1/2 double KO mice were crossed with conditional Aph1ABC triple KO mice ([29], [52], [58], [59]). At embryonic day 7.5, embryos were dissected and dissociated, and cells were plated in the presence of Dulbecco’s modified Eagle’s medium (DMEM)/F12 50% fetal calf serum (FCS) (Invitrogen). […] Psen1/2 double KO/Aph1ABC triple KO MEFs were generated by transduction with a Cre-GFP–expressing adenoviral vector, and GFP-positive MEFs were sorted by fluorescence-activated cell sorting analysis. […]\nas §4"}, "[5]": {"target": "T4, PSEN2-APH1A γ-secretase complex (Homo sapiens, UniProt P49810)", "T4 construct": "expressed in transfected cells; host or cells: Psen1/2 double KO/Aph1ABC triple KO MEFs, pMSCV retroviral PSEN-IRES-APH1", "experiment": "Aβ40 secretion by MEF cell line expressing only PSEN2-APH1A γ-secretase (APP-C99-GFP reporter)", "format": "cell-based", "conditions": "only the 95% CI is given", "excerpt": "as §1\nas §2, with “Four different combinations were made: PSEN1 and APH1AL, PSEN1 and APH1B, PSEN2 and APH1AL, and PSEN2 and APH1B. These cell lines were transduced with pMSCV viral vectors (Clontech) expressing APP-C99-GFP-puromycin. After puromycin selection (5 μg/ml), GFP-positive cells were selected through FACS sorting. For the alanine mutagenesis experiment, pMSCV PSEN1-APH1A viral vectors were generated by using a long PCR-based QuikChange strategy (Stratagene). Stable cell lines without clonal selection were generated for each mutant as described above. All cell lines were regularly tested for the absence of mycoplasma and used for maximum 20 passages in culture.” left out\nas §4"}, "[6]": {"test_system": "T cell acute lymphoblastic leukemia", "set-up": "method as in PMID 31142678", "conditions": "mice; cited from earlier work"}, "[7]": {"target": "T5, PSEN2-APH1B γ-secretase complex (Homo sapiens, UniProt P49810+Q8WW43+Q92542+Q9NZ42)", "T5 construct": "expressed in transfected cells; host or cells: Psen1/2 double KO/Aph1ABC triple KO MEFs, pMSCV retroviral PSEN-IRES-APH1", "experiment": "Aβ40 secretion by MEF cell line expressing only PSEN2-APH1B γ-secretase (APP-C99-GFP reporter)", "format": "cell-based", "conditions": "8 h, Beerse site unless otherwise indicated, read-out: IC50, Aβ40 peptides", "excerpt": "as §1, §5, §4"}, "[8]": {"target": "T6, PSEN2-APH1A γ-secretase complex (Homo sapiens, UniProt P49810+Q92542+Q96BI3+Q9NZ42)", "T6 construct": "expressed in transfected cells; host or cells: Psen1/2 double KO/Aph1ABC triple KO MEFs, pMSCV retroviral PSEN-IRES-APH1", "experiment": "Aβ40 secretion by MEF cell line expressing only PSEN2-APH1A γ-secretase (APP-C99-GFP reporter)", "format": "cell-based", "conditions": "8 h, Beerse site unless otherwise indicated, read-out: IC50, Aβ40 peptides", "excerpt": "as §1\nas §2, with “Four different combinations were made: PSEN1 and APH1AL, PSEN1 and APH1B, PSEN2 and APH1AL, and PSEN2 and APH1B. These cell lines were transduced with pMSCV viral vectors (Clontech) expressing APP-C99-GFP-puromycin. After puromycin selection (5 μg/ml), GFP-positive cells were selected through FACS sorting. For the alanine mutagenesis experiment, pMSCV PSEN1-APH1A viral vectors were generated by using a long PCR-based QuikChange strategy (Stratagene). Stable cell lines without clonal selection were generated for each mutant as described above. All cell lines were regularly tested for the absence of mycoplasma and used for maximum 20 passages in culture.” left out\nas §4"}, "[9]": {"test_system": "WT and PSEN2-deficient mice", "set-up": "method as in PMID 23197721", "conditions": "cited from earlier work"}, "[10]": {"test_system": "PSEN1–γ-secretase complex compared to PSEN2–γ-secretase complexes", "conditions": "cell-free in vitro assays; cited from earlier work"}, "[11]": {"test_system": "APP or Notch processing", "conditions": "in vitro; cited from earlier work"}, "[12]": {"conditions": "8 h, Beerse site unless otherwise indicated, read-out: IC50, Aβ40 peptides"}, "[13]": {"conditions": "only the 95% CI is given, read-out: 95% CI of IC50"}}, "note": "pIC50: −log10 of the molar value. “And” between values parts separate entries of the source, which are not always exact repeats. Identical values can stand only once. Like-named read-outs stand apart in the source and are kept apart here.", "data": [{"smiles": "O=C1NCCCCC1N(Cc1ccc(Br)cc1)S(=O)(=O)c1ccc(Cl)cc1", "note": "(stereo not shown) [ELN-318463]", "values": [{"measurement": "pIC50", "setting": "[1]; [12]", "result": 7.61}, {"measurement": "selectivity for PSEN1 complexes versus PSEN2 complexes", "setting": "[2]; IC50 ratios of PSEN1 versus PSEN2, MEF cell lines", "result": 70, "unit": "fold"}]}, {"smiles": "CC(C)C[C@H](NC(=O)[C@H](Cc1ccccc1)C[C@@H](O)[C@H](Cc1ccccc1)NC(=O)OC(C)(C)C)C(=O)N[C@@H](Cc1ccccc1)C(N)=O", "note": "[L-685,458]", "values": [{"measurement": "pIC50", "setting": "[1]; [13]", "result": "5.41 to 6.22"}, {"measurement": "pIC50", "setting": "[3]; [13]", "result": "5.63 to 5.92"}, {"measurement": "pIC50", "setting": "[4]", "result": "5.24 to 5.65"}, {"measurement": "pIC50", "setting": "[5]", "result": "5.59 to 6.00"}]}, {"smiles": "C[C@H](NC(=O)[C@@H](O)c1cc(F)cc(F)c1)C(=O)N[C@@H]1C(=O)N(C)c2ccccc2-c2ccccc21", "note": "[LY411575]", "values": [{"measurement": "selectivity toward the different γ-secretase complexes", "setting": "[2]; four MEF cell lines", "result": "< 10", "unit": "fold"}, {"measurement": "potency toward all four γ-secretase activities", "setting": "[2]; four MEF cell lines, in words", "result": "low nanomolar potencies"}, {"measurement": "selectivity toward the different γ-secretase complexes", "setting": "[2]; four MEF cell lines, listed as LY-411575", "result": "without convincing selectivity"}]}, {"smiles": "O=C(O)CC[C@H]1CC[C@@](c2cc(F)ccc2F)(S(=O)(=O)c2ccc(Cl)cc2)CC1", "note": "[MK-0752]", "values": [{"measurement": "pIC50", "setting": "[1]; [12]", "result": 8.80}, {"measurement": "pIC50", "setting": "[3]; [12]", "result": 8.28}, {"measurement": "selectivity versus PSEN2–APH1A", "setting": "[2]; MEF cell lines", "result": 14, "unit": "fold"}, {"measurement": "selectivity versus PSEN2–APH1B", "setting": "[2]; MEF cell lines", "result": 70, "unit": "fold"}]}, {"smiles": "O=S(=O)(NC1CCC(c2cc(F)ccc2F)(S(=O)(=O)c2ccc(Cl)cc2)CC1)C(F)(F)F", "note": "(stereo not drawn) [MRK-560, N-[cis-4-[(4-chlorophenyl)sulfonyl]-4-(2,5-difluorophenyl)cyclohexyl]-1,1,1-trifluoromethanesulfonamide]", "values": [{"measurement": "pIC50", "setting": "[1]; [12]", "result": "9.38 and 9.40"}, {"measurement": "protection in T cell acute lymphoblastic leukemia", "setting": "[6]", "result": "protected the mice"}, {"measurement": "pIC50", "setting": "[3]; [12]", "result": 8.85}, {"measurement": "pIC50", "setting": "[7]", "result": "< 6.89"}, {"measurement": "pIC50", "setting": "[8]", "result": "< 6.89"}, {"measurement": "selectivity PSEN1–APH1B versus PSEN1–APH1A", "setting": "[2]; MEF cell lines", "result": 4, "unit": "fold"}, {"measurement": "Aβ levels", "setting": "[9]; WT and PSEN2-deficient mice", "result": "potently and dose dependently reduced Aβ levels"}, {"measurement": "safety of treatment", "setting": "[9]; WT mice", "result": "safe"}, {"measurement": "Notch-related toxicity", "setting": "[9]; mice genetically deficient for PSEN2", "result": "caused major Notch-related toxicity"}, {"measurement": "selectivity for PSEN1 complexes versus PSEN2 complexes", "setting": "[10]", "result": 5, "unit": "fold"}, {"measurement": "selectivity toward the PSEN1–γ-secretase complex compared to PSEN2–γ-secretase complexes", "setting": "[10]", "result": 37, "unit": "fold"}, {"measurement": "selectivity versus APP or Notch processing", "setting": "[11]", "result": "does not show selectivity"}]}]}
